Measurements from patent publication US10702525B1, “Pyrimidine derivatives as anti-diabetic agents” (UNITED ARAB EMIRATES UNIVERSITY, priority 2019, dated 2020).

Columns and labels:
[1] = system: Streptozotocin-injected (STZ) diabetic rats; test: Fasting blood glucose level of STZ diabetic rats; type: in vivo, rat; settings: for reduction in blood glucose level compared to control diabetic groups: 6 and 8 hours after treatment, n=6
Description: These symptoms indicate the development of diabetes characterized by chronic and persistently elevated plasma glucose level. STZ induces diabetes by selectively destroying the insulin producing pancreatic endocrine cells. Decreased body weight in STZ-induced diabetic rats is believed to be caused by dehydration, and by breakdown and catabolism of fats and proteins. Increased catabolic reactions upon administering STZ result in muscle wasting, and subsequently, body weight loss.
Compounds 81c, 81f, 82c, and 82d, synthesized as described in Examples 1, 2, 5, and 6 were orally administrated to the treated groups of diabetic rats at a dose of 1.0 μM/kg. Fasting glucose levels in treated and control rat blood were followed over 8.0 hours. […] Compounds 82c and 82d were also tested in vivo (FIGS. 1C, 1D). […] In FIGS. 1A-1D the results are means±SEM, where n=6 rats; *P<0.05, **P<0.01, and ***P<0.001 vs. the STZ diabetic control group.

[2] = system: βTC6 cells; test: Insulin secretion from βTC6 cell line (insulin Sandwich ELISA); type: cell-based, murine; settings: for insulin secretion compared to the basal control: absence of glucose; for insulin secretion compared to the basal control / insulin secretion compared to basal insulin secretion and to insulin secretion in the presence of glucose: 10^−15 M, 10^−12 M and 10^−9 M; for insulin secretion compared to the basal control / insulin secretion compared to basal insulin secretion and to insulin secretion in the presence of glucose / glucose-stimulated insulin release compared to basal controls (summary statement): βTC6 cells; for insulin secretion compared to basal insulin secretion and to insulin secretion in the presence of glucose: presence of 2.8 mM glucose
Protocol: Secretion of insulin by βTC6 cells was measured using the high range insulin Sandwich ELISA kit.

[3] = system: βTC6 cells; test: Glucose uptake assay (2-NBDG) in βTC6 cells; type: cell-based, murine; settings: 10 μM sample, 450 μM 2-NBDG, ten minutes
Protocol: The glucose uptake assay was performed with a cell-based assay kit by incubating 450 μM 2-[N-(7-nitrobenz-2-oxa-1,3-diaxol-4-yl)amino]-2-deoxyglucose (2-NBDG, a fluorescently labelled deoxyglucose analog) and a 10 μM sample of the reference drug or the test compound with βTC6 cells for ten minutes and subsequently measuring the fluorescence at excitation and emission wavelengths of 485 nm and 535 nm, respectively, with a TECAN infinite M200 micro plate reader.

[4] = oral, 1.0 μM/kg, STZ diabetic rats

Row | Structure (SMILES) | fasting blood glucose levels in diabetic rat models (summary statement) [1] | anti-diabetic potency ranking ([1]; in vivo and in vitro results taken together) | reduction in blood glucose level compared to control diabetic groups [1, 4] | potency in reducing the blood glucose level ([1]; oral, 1.0 μM/kg, at 8 hours, STZ diabetic rats) | insulin secretion compared to the basal control [2] | insulin secretion compared to basal insulin secretion and to insulin secretion in the presence of glucose [2] | insulin secretion effect relative to exenatide ([2]; βTC6 cell line) | glucose-stimulated insulin release compared to basal controls (summary statement) [2] | glucose uptake compared to the standard reference exenatide [3] | melting point [°C] | effect on blood glucose levels (not statistically significant) ([1]; oral, 1.0 μM/kg, followed over 8.0 hours, STZ diabetic rats)
1 | CN(CCO)c1ccnc(Cl)n1 [Compound 81c, 2-[(2′-Chloropyrimidin-4′-yl)-methylamino]ethanol] | decrease fasting blood glucose levels | most potent anti-diabetic compound | significant reduction in blood glucose level | high potency in reducing the blood glucose level | significantly stimulated insulin secretions | stimulated insulin secretion significantly | comparable effects to exenatide | increase glucose-stimulated insulin release | remarkable potential to flush glucose into the βTC6 cells | 136 | –
2 | OCCNc1ccnc(Cl)n1 [Compound 81f, 2-[(2′-Chloropyrimidin-4′-yl)amino]ethanol] | decrease fasting blood glucose levels | – | significant reduction in blood glucose level | – | significantly stimulated insulin secretions | stimulated insulin secretion significantly | – | increase glucose-stimulated insulin release | remarkable potential to flush glucose into the βTC6 cells | 116 to 117 | –
3 | CN(CCO)c1cc(Cl)ncn1 [Compound 82c, 2-[(6′-Chloropyrimidin-4′-yl)(methylamino)]ethanol] | decrease fasting blood glucose levels | – | statistically significant reduction in blood glucose level | – | significantly stimulated insulin secretions | stimulated insulin secretion significantly | – | increase glucose-stimulated insulin release | remarkable potential to flush glucose into the βTC6 cells | – | –
4 | Clc1cc(N2CCOCC2)ncn1 [Compound 82d, 4-(6′-Chloropyrimidin-4′-yl)morpholine] | decrease fasting blood glucose levels | – | – | – | – | – | – | increase glucose-stimulated insulin release | – | – | reduced blood glucose levels
